Results taken from publication PMC4748415, “Impact of different cell penetrating peptides on the efficacy of antisense therapeutics for targeting intracellular pathogens” (Scientific Reports, 2016).
“And” between values parts separate entries of the source, which are not always exact repeats. Identical values can stand only once. “Also recorded” adds a separate entry of the source. Like-named read-outs stand apart in the source and are kept apart here. Marks after values point to notes of the source that are not given here.

Tests used:
L. monocytogenes F4244 [1] = experiment: Concentration-dependent bacterial log reduction in pure culture; format: cell-based, Listeria monocytogenes; settings: for Log CFU/ml: pure culture F4244, 16 hour incubation; for Log CFU reduction: relative to control, pure culture F4244
Experimental: (§1) The MICs of conjugated PNAs, free PNA, CPPs and untreated control against L. monocytogenes were determined using the broth microdilution method according to the Clinical and Laboratory Standards Institute (CLSI) guidelines with the following modifications. Briefly, low binding clear microcentrifuge tubes (USA scientific, Inc. Ocala, FL) were used in triplicates for each reaction instead of traditional 96-well plates. […] After a 16 hour incubation period (of test agent with bacteria), the number of viable bacteria was enumerated by serial dilution and counting on TSA plates. The MICs were repeated at least twice.

L. monocytogenes F4244 [2] = experiment: Time kill assay; format: cell-based, Listeria monocytogenes; settings: 12 hours; for time to complete eradication of Listeria: 32 μM PNA, 37 °C, samples every 2 hours, ~10^5 CFU/ml; for bactericidal or bacteriostatic activity: L. monocytogenes, time kill at 32 μM
Experimental: L. monocytogenes F4244 in logarithmic growth phase was diluted to ~10^5 CFU/ml and incubated with 32 μM of the five PNAs (in triplicates) at 37 °C for 12 hours. Samples were collected every two hours, serially diluted, and plated onto TSA plates. Plates were then incubated wat 37 °C for 24 hours before viable CFUs were determined.
Samples were collected every 20 minutes and processed as above.

[3] = test system: L. monocytogenes F4244 inside infected J774A.1 cells; format: cell-based; settings: 4 hours; for Log CFU/ml: intracellular F4244 in J774A.1; for Log CFU reduction: intracellular F4244 in J774A.1, versus control
[4] = test system: clinical isolates of L. monocytogenes; format: cell-based, Listeria monocytogenes; settings: for MIC50: concentration required to inhibit 50% of L. monocytogenes isolates (six isolates); for MIC: broth microdilution in low binding tubes, triplicates, 16 hour incubation
Experimental: as §1

[5] = test system: cytoplasmic membrane of L. monocytogenes F4244; experiment: Calcein leakage assay; format: cell-based, Listeria monocytogenes; settings: 30 min exposure; PRXR 8 × MIC (8 μM), nisin 5 × MIC (10 μg/ml); fluorescence, n = 3
Experimental: To investigate the effect of PNA on the integrity of the Listeria cell membrane, the leakage of the preloaded fluorescent dye, calcein, was monitored and quantified as described before with a few modifications. Briefly, 20 ml of logarithmic growth phase (OD600 = 1.0, ~10^9 CFU/ml) L. monocytogenes F4244 was centrifuged and bacteria were resuspended in 9 ml of sterile PBS plus 1 ml of BHI. 3 μM of calcein AM dye was added to the bacterial suspension prior to covering the suspension with aluminum foil and incubating for one hour at 37 °C. After 10 minutes centrifugation at 3,000 × g, the supernatant was discarded. The calcein-loaded bacterial cells were resuspended in 30 ml of sterile PBS and 100 μL calcein-loaded bacteria were distributed in a 96-well microtiter plate (in triplicate). PRXR was added in a concentration equal to 8 × MIC (8 μM). Nisin 5 × MIC (10 μg/ml) and sterile water were used as positive and negative controls, respectively. Intensity of fluorescence (calcein leakage) was detected every 5 minutes for 30 minutes using a fluorescence plate reader (FLx800 model BioTek® Instruments, Inc. Winooski, Vermont) with the excitation and emission filters adjusted to 485 nm and 520 nm, respectively.

MRSA USA300 = experiment: MIC against MRSA in pure culture; format: cell-based; settings: multiple of the Listeria MIC, data not shown
L. monocytogenes F4244 [6] = experiment: Time kill assay; format: cell-based, Listeria monocytogenes; settings: 8 μM PNA, 37 °C, samples every 20 minutes, inoculum 2.4 × 10^5 CFU/ml
[7] = test system: L. monocytogenes J0161 in infected C. elegans; experiment: C. elegans infection model; settings: 18 hours treatment; for Log CFUs/worm: 10 worms in triplicates; for Log CFUs reduction: versus water
Experimental: To test the efficacy of PNA in vivo we used Listeria-infected C. elegans. The temperature-sensitive sterile mutant strain C. elegans AU37 [sek-1(km4); glp-4(bn2) I] was used for this study. This strain is sterile at room temperature and can lay eggs only at 15 °C. Furthermore, mutation in the sek-1 gene of the p38 mitogen-activated protein kinase pathway (p38 MAPK pathway), makes this particular C. elegans strain more susceptible to Listeria infection[49][56]. Initially, the pathogenicity of three strains of Listeria (F4244, J0161 and ATCC19111) was tested in C. elegans as described before[24] to determine the most virulent strain to use for this study. […] Briefly, adult worms were grown for 5 days, at 15 °C (temperature that permits worms to lay eggs) on NGM agar plates seeded with a lawn of E. coli OP50. The eggs were harvested by bleaching[57] and maintained for 24 hours at room temperature with gentle agitation for hatching. Hatched larvae were transferred to a new NGM plate seeded with E. coli OP50 and were kept at room temperature for five days until worms reached the adult stage of growth. Adult worms were collected and washed three times with M9 media in a 1:10 ratio to remove E. coli before transfer to LB agar plates seeded with a lawn of L. monocytogenes J0161 for infection. After eight hours of infection, worms were collected and washed with M9 buffer five times before incubation with PNAs. Worms were transferred to low-binding microcentrifuge tubes (10 worms per tube). […] After treatment for 18 hours, worms were washed five times with M9 buffer. […] Samples were serially diluted and plated onto TSA plates containing 5 μg/ml nalidixic acid to select for Listeria.

rpoA = settings: 3.5 hours, 37 °C
[8] = test system: mitochondrial biogenesis in J774A.1 cells; experiment: Mitobiogenesis assay (In-Cell ELISA, COX-I/SDH-A); settings: three days, tested at 0.1, 1, 10 and 20 μM, COX-I/SDH-A ratio
Experimental: To measure the effect of PNA on the mitochondrial biogenesis, In-Cell ELISA Kit (MitoSciences Inc., Eugene, OR, USA) was used as per the manufacturer’s instructions[54][55]. Briefly, J774A.1 cells were seeded (approximately 40,000 cells per well) in 96-well plates and allowed to adhere. […] Cells were allowed to grow for approximately 3 days. Media were removed and cells were washed with PBS, then fixed with 4% paraformaldehyde. After fixing, cells were washed with PBS and permeabilization and blocking processes were done according to the manufacturer’s instructions. Primary antibodies to detect the levels of two proteins (subunit I of Complex IV (COX-I), that is mitochondrial DNA (mtDNA)-encoded), and the 70 kDa subunit of Complex II (SDH-A), a nuclear DNA (nDNA)-encoded were added and incubated for overnight at 4 °C. After incubation, cells were washed with PBS and secondary antibodies were added and incubated at room temperature for one hour. After washing, the expression of SDH-A and COX-1 were measured at 405 nm and 600 nm wavelength, respectively. The ratio between COX-I and SDH-A was calculated and the percent of inhibition of mitochondrial biogenesis was determined.

hly = experiment: Real-Time qRT-PCR gene expression, hly; format: cell-based, L. monocytogenes F4244; settings: 2 μM PTAT, 3.5 hours, 37 °C
plcA = experiment: Real-Time qRT-PCR gene expression, plcA; format: cell-based, L. monocytogenes F4244; settings: 2 μM PTAT, 3.5 hours, 37 °C
plcB = experiment: Real-Time qRT-PCR gene expression, plcB; format: cell-based, L. monocytogenes F4244; settings: 3.5 hours, 37 °C

## RXRRXRRXRRXRXB-O-cgatcattcaaa-NH2 [PRXR]
L. monocytogenes F4244 [1]; 1 µM PNA
  Log CFU/ml: 6.87±0.84 Log CFU/ml
  Log CFU reduction: 2.51 Log CFU
L. monocytogenes F4244 [1]; 2 µM PNA
  Log CFU/ml: 3.15±0.21 Log CFU/ml
  Log CFU reduction: 6.24 Log CFU
L. monocytogenes F4244 [1]; 4 µM PNA
  Log CFU/ml: Cleared
  Log CFU reduction: 9.39 Log CFU
L. monocytogenes F4244 [1]; 8 µM PNA
  Log CFU/ml: Cleared
  Log CFU reduction: 9.39 Log CFU
L. monocytogenes F4244 [1]; 16 µM PNA
  Log CFU/ml: Cleared
  Log CFU reduction: 9.39 Log CFU
L. monocytogenes F4244 [1]; 32 µM PNA
  Log CFU/ml: Cleared
  Log CFU reduction: 9.39 Log CFU
L. monocytogenes F4244 [2]
  time to complete eradication of Listeria: ≤ 2 h
  bactericidal or bacteriostatic activity: bactericidal activity
[3]; 2 μM
  Log CFU/ml: 4.95 ± 0.07 Log CFU/ml
  Log CFU reduction: 1.78 Log CFU
[3]; 4 μM
  Log CFU/ml: 3.079 Log CFU/ml
  Log CFU reduction: 3.65* Log CFU
[3]; 8 μM
  Log CFU/ml: complete clearance; also recorded: cleared
  Log CFU reduction: 6.73* Log CFU
[4]
  MIC50: 1 µM
[4]; strain ATCC 13932
  MIC: 2 µM
[4]; strain ATCC 19111
  MIC: 1 µM
[4]; strain ATCC 19112
  MIC: 1 µM
[4]; strain ATCC 19114
  MIC: 0.25 µM
[4]; strain F4244, no turbidity
  MIC: 1 µM
[4]; strain J0161
  MIC: 4 µM
[5]
  calcein leakage: did not result in leakage; also recorded: does not permeabilize the bacterial cell membrane
MRSA USA300
  concentration without inhibition of bacterial growth: > 16 × MIC
L. monocytogenes F4244 [6]
  time to complete elimination of starting inoculum: ≤ 20 min
[7]; 16 µM
  Log CFUs/worm: 2.24±0.99 Log CFUs/worm
  Log CFUs reduction: 1.91 Log CFUs
[7]; 32 µM
  Log CFUs reduction: 4.38 Log CFUs

## nisin [reference compound]
[5]
  calcein leakage: more than 72%

## GRKKKRRQRRRYK-O-cgatcattcaaa-NH2 [PTAT]
rpoA; 1 μM PTAT
  percentage of gene expression of rpoA: more than 50%
  reduction in rpoA gene expression: 50% and 43.7%
rpoA; 4 μM PTAT
  percentage of gene expression of rpoA: less than 5%
L. monocytogenes F4244 [1]; 1 µM PNA
  Log CFU/ml: 8.28±0.37 Log CFU/ml
  Log CFU reduction: 1.1 Log CFU
L. monocytogenes F4244 [1]; 2 µM PNA
  Log CFU/ml: 5.94±0.42 Log CFU/ml
  Log CFU reduction: 3.45 Log CFU
L. monocytogenes F4244 [1]; 4 µM PNA
  Log CFU/ml: Cleared
  Log CFU reduction: 9.39 Log CFU
L. monocytogenes F4244 [1]; 8 µM PNA
  Log CFU/ml: Cleared
  Log CFU reduction: 9.39 Log CFU
L. monocytogenes F4244 [1]; 16 µM PNA
  Log CFU/ml: Cleared
  Log CFU reduction: 9.39 Log CFU
L. monocytogenes F4244 [1]; 32 µM PNA
  Log CFU/ml: Cleared
  Log CFU reduction: 9.39 Log CFU
L. monocytogenes F4244 [2]
  time to complete eradication of Listeria: ≤ 2 h
  bactericidal or bacteriostatic activity: bactericidal activity
[3]; 2 μM
  Log CFU/ml: 5.95 ± 0.02 Log CFU/ml
  Log CFU reduction: 0.78 Log CFU
[3]; 4 μM
  Log CFU/ml: 5.19 ± 0.33 Log CFU/ml
  Log CFU reduction: 1.54* Log CFU
[3]; 8 μM
  Log CFU/ml: 4.22 ± 0.11 Log CFU/ml
  Log CFU reduction: 2.51* Log CFU
[8]
  inhibition of mitochondrial protein synthesis (mitobiogenesis): does not interfere with the mitochondrial protein synthesis process
[4]
  MIC50: 2 µM
[4]; strain ATCC 13932
  MIC: 4 µM
[4]; strain ATCC 19111
  MIC: 4 µM
[4]; strain ATCC 19112
  MIC: 2 µM
[4]; strain ATCC 19114
  MIC: 0.5 µM
[4]; strain F4244, no turbidity
  MIC: 2 µM
[4]; strain J0161
  MIC: 4 µM
L. monocytogenes F4244 [6]
  time to complete elimination of starting inoculum: ≤ 20 min
hly
  downregulation of hly gene: more than 50%
plcA
  decrease of plcA gene expression: more than 70%
plcB; 1 μM PTAT
  reduction in plcB gene expression: 55.9%
plcB; 2 μM PTAT
  decrease of plcB gene expression: more than 70%
[7]; 16 µM
  Log CFUs/worm: 3.04±0.36 Log CFUs/worm
  Log CFUs reduction: 1.11 Log CFUs
[7]; 32 µM
  Log CFUs/worm: 1.7±0.6 Log CFUs/worm
  Log CFUs reduction: 2.67 Log CFUs
